Data from patent US9776972B2, “Pyrazole derivatives as arginine methyltransferase inhibitors and uses thereof” (priority 2013, dated 2017).

Target: human PRMT3 (Homo sapiens, UniProt O60678)
Assay: PRMT3 Biochemical Assay (3H-SAM Flashplate, peptide substrate)
Settings: single experiment or average of multiple experiments

human PRMT3, sequence (O60678 with tags, fused parts or gaps): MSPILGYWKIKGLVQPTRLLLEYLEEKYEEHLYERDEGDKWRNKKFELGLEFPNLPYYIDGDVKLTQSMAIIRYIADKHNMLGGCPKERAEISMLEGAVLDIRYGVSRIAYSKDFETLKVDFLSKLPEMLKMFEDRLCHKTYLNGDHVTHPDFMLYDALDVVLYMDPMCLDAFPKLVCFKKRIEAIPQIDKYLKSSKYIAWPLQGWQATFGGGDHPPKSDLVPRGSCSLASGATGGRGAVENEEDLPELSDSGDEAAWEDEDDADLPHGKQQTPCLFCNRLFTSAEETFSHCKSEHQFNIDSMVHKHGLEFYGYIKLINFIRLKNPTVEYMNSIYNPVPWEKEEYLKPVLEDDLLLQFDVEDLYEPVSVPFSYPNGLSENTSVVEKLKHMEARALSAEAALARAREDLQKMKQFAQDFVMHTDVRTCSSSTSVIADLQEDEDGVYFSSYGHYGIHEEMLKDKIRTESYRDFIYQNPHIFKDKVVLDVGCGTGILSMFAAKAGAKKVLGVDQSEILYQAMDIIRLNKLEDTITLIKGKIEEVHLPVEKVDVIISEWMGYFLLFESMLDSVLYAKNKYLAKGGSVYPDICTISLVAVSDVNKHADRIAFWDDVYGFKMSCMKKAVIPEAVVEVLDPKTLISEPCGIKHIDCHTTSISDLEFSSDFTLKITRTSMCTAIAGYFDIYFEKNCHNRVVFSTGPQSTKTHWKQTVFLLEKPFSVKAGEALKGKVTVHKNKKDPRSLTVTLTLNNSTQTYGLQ

CNCCN(C)Cc1c[nH]nc1-c1ccc(F)cc1 [Compound 2, N^1-((3-(4-fluorophenyl)-1H-pyrazol-4-yl)methyl)-N^1,N^2-dimethylethane-1,2-diamine]
IC50: 4.48 µM

CCCc1ccc(-c2n[nH]cc2CN(C)CCNC)cc1 [Compound 20]
IC50: 3.54 µM

CNCCN(C)Cc1c[nH]nc1-c1cccc([N+](=O)[O-])c1 [Compound 21]
IC50: 2.3 µM

CNCCN(C)Cc1c[nH]nc1-c1ccc(CO)cc1 [Compound 28]
IC50: 0.202 µM

CNCCN(C)Cc1c[nH]nc1-c1ccc(N)cc1 [Compound 33]
IC50: 1.89 µM

CNCCN(C)Cc1c[nH]nc1-c1ccc(Oc2ccccc2)cc1 [Compound 37]
IC50: 0.25 µM

CNCCN(C)Cc1c[nH]nc1-c1ccc(C(=O)c2ccccc2)cc1 [Compound 45]
IC50: 5.53 µM

CNCCN(C)Cc1c[nH]nc1-c1ccc(F)cc1F [Compound 49]
IC50: 4.43 µM

CNCCN(C)Cc1c[nH]nc1-c1ccc(F)c(F)c1 [Compound 51]
IC50: 5.01 µM

CNCCN(C)Cc1c[nH]nc1-c1ccc(OC)c(F)c1 [Compound 52]
IC50: 5.25 µM

CNCCN(C)Cc1c[nH]nc1-c1cccc2ccccc12 [Compound 57]
IC50: 3.35 µM

CNCCN(C)Cc1c[nH]nc1-c1ccc2ccccc2c1 [Compound 58]
IC50: 3.16 µM

CCN(CCN)Cc1c[nH]nc1-c1ccc(F)cc1 [Compound 62]
IC50: 4.13 µM

CN(CCN)Cc1c[nH]nc1-c1ccc(C#N)cc1 [Compound 68]
IC50: 4.36 µM
